Patent publication US9493461B2, “Tetracyclic heterocycle compounds and methods of use thereof for the treatment of hepatitis C” (priority 2013, dated 2016)
Like-named read-outs stand apart in the source and are kept apart here.

Experiments:
HCV replicon genotype 1a = assay: HCV replicon assay, genotype 1a (cell ELISA for replicon-encoded NS3/4A); type: cell-based, hepatitis C virus (HCV)
Procedure: Measurement of inhibition by compounds was performed using the HCV replicon system. Several different replicons encoding different HCV genotypes or mutations were used. In addition, potency measurements were made using different formats of the replicon assay, including different ways of measurements and different plating formats. See Jan M. Vrolijk et al., A replicons-based bioassay for the measurement of interferons in patients with chronic hepatitis C, 110 J. V[…] 201 (2003); Steven S. Carroll et al., Inhibition of Hepatitis C Virus RNA Replication by 2′-Modified Nucleoside Analogs, 278(14) J. BIOLOGICAL CHEMISTRY 11979 (2003). However, the underlying principles are common to all of these determinations, and are outlined below.
(§1) Stable neomycin phosphotransferase encoding replicons-harboring cell lines were used, so all cell lines were maintained under G418 selection prior to the assay. Potency was determined using a cell ELISA assay with an antibody to the replicons encoded NS3/4a protease. See Caterina Trozzi et al., In Vitro Selection and Characterization of Hepatitis C Virus Serine Protease Variants Resistant to an Active-Site Peptide Inhibitor, 77(6) J. Virol. 3669 (2003). To initiate an assay, replicon cells were plated in the presence of a dilution series of test compound in the absence of G418. Typically, the assays were performed in a 96-well plate formate for manual operation, or a 384-well plate format for automated assay. Replicon cells and compound were incubated for 96 hours. At the end of the assay, cells were washed free of media and compound, and the cells were then lysed. RNA was quantified indirectly through detection of replicon-encoded NS3/4A protein levels, through an ELISA-based assay with an antibody specific for NS3/4A. IC50 determinations were calculated as a percentage of a DMSO control by fitting the data to a four-parameter fit function and the data obtained is provided in the table below.
(§2) Data for selected compounds of the present invention was obtained for genotypes 1a and 1b using this method and is provided in the table below: […]

HCV replicon genotype 1b = assay: HCV replicon assay, genotype 1b (cell ELISA for replicon-encoded NS3/4A); type: cell-based, hepatitis C virus (HCV)
Procedure: The HCV NS5B inhibitory activity of the present compounds may be tested using assays known in the art. The HCV NS5B polymerase inhibitors described herein have activities in a genotype 1b replicon assay as described in the Examples. The assay is performed by incubating a replicon harboring cell-line in the presence of inhibitor for a set period of time and measuring the effect of the inhibitor on HCV replicon replication either directly by quantifying replicon RNA level, or indirectly by measuring enzymatic activity of a co-encoded reporter enzyme such as luciferase or β-lactamase. By performing a series of such measurements at different inhibitor concentrations, the effective inhibitory concentration of the inhibitor (EC50 or EC90) is determined See Jan M. Vrolijk et al., A replicons-based bioassay for the measurement of interferons in patients with chronic hepatitis C, 110 J. VIROLOGICAL METHODS 201 (2003). Such assays may also be run in an automated format for high through-put screening. See Paul Zuck et al., A cell-based β-lactamase reporter gene assay for the identification of inhibitors of hepatitis C virus replication, 334 ANALYTICAL BIOCHEMISTRY 344 (2004).
Measurement of inhibition by compounds was performed using the HCV replicon system. Several different replicons encoding different HCV genotypes or mutations were used. In addition, potency measurements were made using different formats of the replicon assay, including different ways of measurements and different plating formats. See Jan M. Vrolijk et al., A replicons-based bioassay for the measurement of interferons in patients with chronic hepatitis C, 110 J. VIROLOGICAL METHODS 201 (2003); Steven S. Carroll et al., Inhibition of Hepatitis C Virus RNA Replication by 2′-Modified Nucleoside Analogs, 278(14) J. BIOLOGICAL CHEMISTRY 11979 (2003). However, the underlying principles are common to all of these determinations, and are outlined below.
as §1, §2

[1] = Hepatitis C virus, 96 h, read-out: 1a IC50 (nM), genotype 1a replicon cells, 96 hours incubation, NS3/4A ELISA readout, % of DMSO control
[2] = Hepatitis C virus, 96 h, read-out: 1b IC50 (nM), genotype 1b replicon cells, 96 hours incubation, NS3/4A ELISA readout, % of DMSO control

## CNC(=O)c1c(C(=O)N2CC(F)C2)oc2cc(N(C)S(C)(=O)=O)c(-c3ccc4ncn5c6cccc(F)c6cc5c4n3)cc12 [Example 50, 2-(3-fluoroazetidine-1-carbonyl)-5-(11-fluoropyrido[3′,2′:4,5]pyrimido[1,6-a]indol-2-yl)-N-methyl-6-(N-methylmethylsulfonamido)benzofuran-3-carboxamide]
HCV replicon genotype 1a; [1]
  IC50: 18.1 nM
HCV replicon genotype 1b; [2]
  IC50: 19.8 nM

## CNC(=O)c1c(C(=O)N2CC(F)(F)C2)oc2cc(N(C)S(C)(=O)=O)c(-c3ccc4ncn5c6cccc(F)c6cc5c4n3)cc12 [Example 51]
HCV replicon genotype 1a; [1]
  IC50: 39.1 nM
HCV replicon genotype 1b; [2]
  IC50: 32 nM

## CNC(=O)c1c(C(=O)N2CCC2(C)C)oc2cc(N(C)S(C)(=O)=O)c(-c3ccc4ncn5c6cccc(F)c6cc5c4n3)cc12 [Example 52]
HCV replicon genotype 1a; [1]
  IC50: 260 nM
HCV replicon genotype 1b; [2]
  IC50: 120 nM

## CCc1ncc(-c2oc3cc(N(C)S(C)(=O)=O)c(-c4ccc5ncn6c7cccc(F)c7cc6c5n4)cc3c2C(=O)NC)s1 [Example 53, 2-(2-ethylthiazol-5-yl)-5-(11-fluoropyrido[3′,2′:4,5]pyrimido[1,6-a]indol-2-yl)-N-methyl-6-(N-methylmethylsulfonamido)benzofuran-3-carboxamide]
HCV replicon genotype 1a; [1]
  IC50: 7.79 nM
HCV replicon genotype 1b; [2]
  IC50: 6.37 nM

## CNC(=O)c1c(-c2ccc(F)cc2)oc2cc(N(C)S(C)(=O)=O)c(-c3ccc4nc(CCN5CC(F)C5)n5c6cccc(F)c6cc5c4n3)cc12 [Example 54, 5-(11-fluoro-6-(2-(3-fluoroazetidin-1-yl)ethyl)pyrido[3′,2′:4,5]pyrimido[1,6-a]indol-2-yl)-2-(4-fluorophenyl)-N-methyl-6-(N-methylmethylsulfonamido)benzofuran-3-carboxamide]
HCV replicon genotype 1a; [1]
  IC50: 2.14 nM
HCV replicon genotype 1b; [2]
  IC50: 4.86 nM

## CNC(=O)c1c(-c2ccc(F)cc2)oc2cc(N(C)S(C)(=O)=O)c(-c3ccc4ncn5c6cccc(F)c6cc5c4n3)cc12 [Example 55, 2-(4-fluorophenyl)-5-(11-fluoropyrido[3′,2′:4,5]pyrimido[1,6-a]indol-2-yl)-N-methyl-6-(N-methylmethylsulfonamido)benzofuran-3-carboxamide]
HCV replicon genotype 1a; read-out: 1a IC50, genotype 1a replicon cells, 96 hours incubation, NS3/4A ELISA readout, % of DMSO control
  IC50: 1.55 nM
HCV replicon genotype 1b; read-out: 1b IC50, genotype 1b replicon cells, 96 hours incubation, NS3/4A ELISA readout, % of DMSO control
  IC50: 2.01 nM

## CNC(=O)c1c(-c2ccc(F)cc2)oc2cc(N(C)S(C)(=O)=O)c(-c3ccc4c(n3)-c3cc5c(F)cccc5n3CN4)cc12 [Example 56, 5-(11-fluoro-5,6-dihydropyrido[3′,2′:4,5]pyrimido[1,6-a]indol-2-yl)-2-(4-fluorophenyl)-N-methyl-6-(N-methylmethylsulfonamido)benzofuran-3-carboxamide]
HCV replicon genotype 1a; [1]
  IC50: 5.26 nM
HCV replicon genotype 1b; [2]
  IC50: 5.32 nM

## CNC(=O)c1c(-c2ccc(F)cc2)oc2cc(N(C)S(C)(=O)=O)c(-c3cnc4c(c3)-c3cc5c(F)cccc5n3CN4)cc12 [Example 57]
HCV replicon genotype 1a; [1]
  IC50: 2.66 nM
HCV replicon genotype 1b; [2]
  IC50: 3.11 nM

## CNC(=O)c1c(-c2ccc(F)cc2F)oc2cc(N(C)S(C)(=O)=O)c(-c3ccc4c(n3)-c3cc5c(F)cccc5n3CN4)cc12 [Example 58]
HCV replicon genotype 1a; [1]
  IC50: 1.68 nM
HCV replicon genotype 1b; [2]
  IC50: 2.76 nM

## CNC(=O)c1c(-c2ccc(F)cc2)oc2cc(N(C)S(C)(=O)=O)c(-c3cnc4ncn5c6cccc(F)c6cc5c4c3)cc12 [Example 59, 2-(4-fluorophenyl)-5-(11-fluoropyrido[2′,3′:4,5]pyrimido[1,6-a]indol-2-yl)-N-methyl-6-(N-methylmethylsulfonamido)benzofuran-3-carboxamide]
HCV replicon genotype 1a; [1]
  IC50: 2 nM
HCV replicon genotype 1b; [2]
  IC50: 2.16 nM

## CNC(=O)c1c(-c2ccc(F)cc2)oc2cc(N(C)S(C)(=O)=O)c(-c3ccc4nc(C)n5c6cccc(F)c6cc5c4n3)cc12 [Example 60, 5-(11-fluoro-6-methylpyrido[3′,2′:4,5]pyrimido[1,6-a]indol-2-yl)-2-(4-fluorophenyl)-N-methyl-6-(N-methylmethylsulfonamido)benzofuran-3-carboxamide]
HCV replicon genotype 1a; [1]
  IC50: 2.78 nM
HCV replicon genotype 1b; [2]
  IC50: 2.77 nM

## CNC(=O)c1c(-c2ccc(F)cc2)oc2cc(N(C)S(C)(=O)=O)c(-c3ccc4c(n3)-c3cc5c(F)cccc5n3C(C)N4)cc12 (stereo not drawn) [Example 61, 5-(11-fluoro-6-methyl-5,6-dihydropyrido[3′,2′:4,5]pyrimido[1,6-a]indol-2-yl)-2-(4-fluorophenyl)-N-methyl-6-(N-methylmethylsulfonamido)benzofuran-3-carboxamide]
HCV replicon genotype 1a; [1]
  IC50: 2.6 nM
HCV replicon genotype 1b; [2]
  IC50: 3.01 nM

## CNC(=O)c1c(-c2ccc(F)cc2)oc2cc(N(C)S(C)(=O)=O)c(-c3ccc4nc(C(=O)OC)n5c6cccc(F)c6cc5c4n3)cc12 [Example 62, methyl 11-fluoro-2-(2-(4-fluorophenyl)-3-(methylcarbamoyl)-6-(N-methylmethylsulfonamido)benzofuran-5-yl)pyrido[3′,2′:4,5]pyrimido[1,6-a]indole-6-carboxylate]
HCV replicon genotype 1a; [1]
  IC50: 8.67 nM
HCV replicon genotype 1b; [2]
  IC50: 12.2 nM

## CNC(=O)c1c(-c2ccc(F)cc2)oc2cc(N(C)S(C)(=O)=O)c(-c3ccc4nc(CC(=O)OC)n5c6cccc(F)c6cc5c4n3)cc12 [Example 63, methyl 2-(11-fluoro-2-(2-(4-fluorophenyl)-3-(methylcarbamoyl)-6-(N-methylmethylsulfonamido)benzofuran-5-yl)pyrido[3′,2′:4,5]pyrimido[1,6-a]indol-6-yl)acetate]
HCV replicon genotype 1a; [1]
  IC50: 1.55 nM
HCV replicon genotype 1b; [2]
  IC50: 2.76 nM

## CNC(=O)c1c(-c2ccc(F)cc2)oc2cc(N(C)S(C)(=O)=O)c(-c3ccc4c(n3)-c3cc5c(F)cccc5n3C(CO)N4)cc12 (stereo not drawn) [Example 64, 5-(11-fluoro-6-(hydroxymethyl)-5,6-dihydropyrido[3′,2′:4,5]pyrimido[1,6-a]indol-2-yl)-2-(4-fluorophenyl)-N-methyl-6-(N-methylmethylsulfonamido)benzofuran-3-carboxamide]
HCV replicon genotype 1a; [1]
  IC50: 11.8 nM
HCV replicon genotype 1b; [2]
  IC50: 11.8 nM

## CNC(=O)c1c(-c2ccc(F)cc2)oc2cc(N(C)S(C)(=O)=O)c(-c3ccc4c(n3)-c3cc5c(F)cccc5n3C(CCO)N4)cc12 (stereo not drawn) [Example 65, 5-(11-fluoro-6-(2-hydroxyethyl)-5,6-dihydropyrido[3′,2′:4,5]pyrimido[1,6-a]indol-2-yl)-2-(4-fluorophenyl)-N-methyl-6-(N-methylmethylsulfonamido)benzofuran-3-carboxamide]
HCV replicon genotype 1a; [1]
  IC50: 2.52 nM
HCV replicon genotype 1b; [2]
  IC50: 2.42 nM

## CNC(=O)c1c(-c2ccc(F)cc2)oc2cc(N(C)S(C)(=O)=O)c(-c3ccc4c(n3)-c3cc5c(F)cccc5n3C(C)(C)N4)cc12 [Example 66, 5-(11-fluoro-6,6-dimethyl-5,6-dihydropyrido[3′,2′:4,5]pyrimido[1,6-a]indol-2-yl)-2-(4-fluorophenyl)-N-methyl-6-(N-methylmethylsulfonamido)benzofuran-3-carboxamide]
HCV replicon genotype 1a; [1]
  IC50: 5.96 nM
HCV replicon genotype 1b; [2]
  IC50: 9.23 nM

## CNC(=O)c1c(-c2ccc(F)cc2)oc2cc(N(C)S(C)(=O)=O)c(-c3ccc4c(n3)-c3cc5c(F)cccc5n3CN4C)cc12 [Example 67, 5-(11-fluoro-5-methyl-5,6-dihydropyrido[3′,2′:4,5]pyrimido[1,6-a]indol-2-yl)-2-(4-fluorophenyl)-N-methyl-6-(N-methylmethylsulfonamido)benzofuran-3-carboxamide]
HCV replicon genotype 1a; [1]
  IC50: 1.56 nM
HCV replicon genotype 1b; [2]
  IC50: 2.72 nM
